This note sets out measurements from US20230017045A1, “PYRIDINE AND PYRIMIDINE CARBOXYLATE HERBICIDES AND METHODS OF USE THEREOF” (Dow AgroSciences LLC, priority 2017, published 2023).

This experiment concerns test plant species. The experiment in a line: Post-emergent herbicidal activity test (greenhouse, foliar spray, visual growth reduction). It is filed as in vivo. The note with it: post-emergence, 336 h, 140 g ai/ha, 14 days after application. In short, it runs like this: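 Scoring used a 0 to 100 percent visual scale of growth reduction against solvent-treated controls, read 14 d after spraying. Applications went onto plants at first or second true leaf stage, 187 L/ha, with crop oil concentrate and X-77 surfactant in the carrier. Post-treatment watering was by subirrigation to avoid wash-off.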

Setting [1] is: ALOMY: blackgrass (Alopecurus myosuroides), read-out: Visual Growth Reduction (%) 14 Days After Application, ALOMY.
Where [2] appears, read: AMARE: redroot pigweed (Amaranthus retroflexus), read-out: Visual Growth Reduction (%) 14 Days After Application, AMARE.
[3] abbreviates: AVEFA: wild oat (Avena fatua), read-out: Visual Growth Reduction (%) 14 Days After Application, AVEFA.
[4] abbreviates: CHEAL: lambsquarters (Chenopodium album), read-out: Visual Growth Reduction (%) 14 Days After Application, CHEAL.
The mark [5] stands for this setting: CIRAR: canada thistle (Cirsium arvense), read-out: Visual Growth Reduction (%) 14 Days After Application, CIRAR.
The mark [6] stands for this setting: CYPES: yellow nutsedge (Cyperus esculentus), read-out: Visual Growth Reduction (%) 14 Days After Application, CYPES.
The mark [7] stands for this setting: DIGSA: crabgrass (Digitaria sanguinalis), read-out: Visual Growth Reduction (%) 14 Days After Application, DIGSA.
Where [8] appears, read: ECHCG: barnyardgrass (Echinochloa crus-galli), read-out: Visual Growth Reduction (%) 14 Days After Application, ECHCG.
Where [9] appears, read: IPOHE: ivy-leaf morning glory (Ipomoea hederacea), read-out: Visual Growth Reduction (%) 14 Days After Application, IPOHE.
Setting [10] is: KCHSC: kochia (Bassia scoparia), read-out: Visual Growth Reduction (%) 14 Days After Application, KCHSC.
Setting [11] is: ORYSA: rice (Oryza sativa), read-out: Visual Growth Reduction (%) 14 Days After Application, ORYSA.
Where [12] appears, read: SETFA: giant foxtail (Setaria faberi), read-out: Visual Growth Reduction (%) 14 Days After Application, SETFA.
Setting [13] is: SORVU: grain sorghum (Sorghum vulgare), read-out: Visual Growth Reduction (%) 14 Days After Application, SORVU.
[14] abbreviates: STEME: common chickweed (Stellaria media), read-out: Visual Growth Reduction (%) 14 Days After Application, STEME.
Where [15] appears, read: TRZAS: wheat, spring (Triticum aestivum), read-out: Visual Growth Reduction (%) 14 Days After Application, TRZAS.

Like-named read-outs stand apart in the source and are kept apart here.

Turning to `COC(=O)c1nc(-c2ccc(C(F)(F)F)nc2)c(Cl)cc1Cl` [F99, methyl 3,5-dichloro-6′-(trifluoromethyl)-[2,3′-bipyridine]-6-carboxylate], the pest or weed control at 140 g/ha runs as follows: under setting [1], 0 to 29%; under setting [2], 0 to 29%; under setting [3], 0 to 29%; under setting [4], 0 to 29%; under setting [5], 0 to 29%; under setting [6], 0 to 29%. Moreover, the pest or weed control at 140 g/ha by setting is: under setting [7], 0 to 29%; under setting [8], 0 to 29%; under setting [9], 0 to 29%; under setting [10], 0 to 29%; under setting [11], 0 to 29%; under setting [12], 0 to 29%. Moreover, the pest or weed control at 140 g/ha is, setting by setting: under setting [13], 0 to 29%; under setting [14], 0 to 29%; under setting [15], 0 to 29%.

For the compound `COC(=O)c1nc(-c2ccc(I)cc2)c(F)cc1Cl` [F100, Methyl 3-chloro-5-fluoro-6-(4-iodophenyl) picolinate], the pest or weed control at 140 g/ha is 0 to 29% under setting [1]; 0 to 29% under setting [2]; 0 to 29% under setting [3]; 0 to 29% under setting [4]; 45 to 59% under setting [5]; 30 to 44% under setting [6]. The pest or weed control at 140 g/ha reads like this: under setting [7], 0 to 29%; under setting [8], 0 to 29%; under setting [9], 30 to 44%; under setting [10], 0 to 29%; under setting [11], 0 to 29%; under setting [12], 0 to 29%. For the same compound, the pest or weed control at 140 g/ha lay in the range of 30 to 44% under setting [13], 0 to 29% under setting [14] and 0 to 29% under setting [15].

For `COC(=O)c1nc(-c2ncc(C(F)(F)F)cc2Cl)ccc1Cl` [F101, methyl 3′,5-dichloro-5′-(trifluoromethyl)-[2,2′-bipyridine]-6-carboxylate], the pest or weed control at 140 g/ha under setting [1] is 0 to 29%; the pest or weed control at 140 g/ha under setting [2] lay within 95 to 100%; the pest or weed control at 140 g/ha under setting [3] was in the range of 0 to 29%; the pest or weed control at 140 g/ha under setting [4] was 95 to 100%; the pest or weed control at 140 g/ha under setting [5] fell in the range of 85 to 94%; the pest or weed control at 140 g/ha under setting [6] was 75 to 84%. For the same compound, the pest or weed control at 140 g/ha runs as follows: under setting [7], 95 to 100%; under setting [8], 85 to 94%; under setting [9], 95 to 100%; under setting [10], 95 to 100%; under setting [11], 0 to 29%; under setting [12], 75 to 84%. Also, the pest or weed control at 140 g/ha was 95 to 100% under setting [13], 0 to 29% under setting [14] and 60 to 74% under setting [15].

`COC(=O)c1nc(-c2ccc(C(F)(F)F)cc2F)c(Cl)cc1Cl` [F102, Methyl 3,5-dichloro-6-(2-fluoro-4-(trifluoromethyl)phenyl)picolinate]: the pest or weed control at 140 g/ha lay in the range of 0 to 29% under setting [1]; 45 to 59% under setting [2]; 0 to 29% under setting [3]; 60 to 74% under setting [4]; 0 to 29% under setting [5]; 0 to 29% under setting [6]. For the same compound, the pest or weed control at 140 g/ha by setting is: under setting [7], 0 to 29%; under setting [8], 0 to 29%; under setting [9], 60 to 74%; under setting [10], 0 to 29%; under setting [11], 0 to 29%; under setting [12], 0 to 29%. Also, the pest or weed control at 140 g/ha is, setting by setting: under setting [13], 60 to 74%; under setting [14], 0 to 29%; under setting [15], 0 to 29%.

On to `COC(=O)c1nc(-c2ccc(C(F)(F)F)cc2Cl)ncc1OC` [F104, Methyl 2-(2-chloro-4-(trifluoromethyl)phenyl)-5-methoxypyrimidine-4-carboxylate], for which the pest or weed control at 140 g/ha is, setting by setting: under setting [1], 0 to 29%; under setting [2], 0 to 29%; under setting [3], 0 to 29%; under setting [4], 0 to 29%; under setting [5], 0 to 29%; under setting [6], 0 to 29%. For the same compound, the pest or weed control at 140 g/ha runs as follows: under setting [7], 60 to 74%; under setting [8], 0 to 29%; under setting [9], 60 to 74%; under setting [10], 0 to 29%; under setting [11], 0 to 29%; under setting [12], 0 to 29%. Moreover, the pest or weed control at 140 g/ha runs as follows: under setting [13], 60 to 74%; under setting [14], 0 to 29%; under setting [15], 0 to 29%.

Take `COC(=O)c1nc(-c2ccc(C(F)(F)F)cc2Cl)ncc1Cl` [F105, Methyl 5-chloro-2-(2-chloro-4-(trifluoromethyl)phenyl)pyrimidine-4-carboxylate]: the pest or weed control at 140 g/ha fell in the range of 0 to 29% under setting [1]; 95 to 100% under setting [2]; 0 to 29% under setting [3]; 85 to 94% under setting [4]; 85 to 94% under setting [5]; 0 to 29% under setting [6]. The pest or weed control at 140 g/ha lay within 85 to 94% under setting [7]; 60 to 74% under setting [8]; 95 to 100% under setting [9]; 60 to 74% under setting [10]; 0 to 29% under setting [11]; 60 to 74% under setting [12]. The pest or weed control at 140 g/ha runs as follows: under setting [13], 75 to 84%; under setting [14], 0 to 29%; under setting [15], 0 to 29%.

With `COC(=O)c1nc(-c2ccc(C(F)(F)F)cc2)c(Cl)cc1Cl` [F106, Methyl 3,5-dichloro-6-(4-(trifluoromethyl)phenyl)picolinate], the pest or weed control at 140 g/ha runs as follows: under setting [1], 0 to 29%; under setting [2], 45 to 59%; under setting [3], 0 to 29%; under setting [4], 30 to 44%; under setting [5], 0 to 29%; under setting [6], 0 to 29%. In addition, the pest or weed control at 140 g/ha lay within 45 to 59% under setting [7]; 0 to 29% under setting [8]; 45 to 59% under setting [9]; 0 to 29% under setting [10]; 0 to 29% under setting [11]; 0 to 29% under setting [12]. The pest or weed control at 140 g/ha fell in the range of 30 to 44% under setting [13], 0 to 29% under setting [14] and 0 to 29% under setting [15].

As to `COC(=O)c1nc(-c2ccc(C(F)(F)F)cc2Cl)c(F)cc1Cl` [F107, methyl 3-chloro-6-(2-chloro-4-(trifluoromethyl)phenyl)-5-fluoropicolinate], the pest or weed control at 140 g/ha was 30 to 44% under setting [1]; 95 to 100% under setting [2]; 45 to 59% under setting [3]; 95 to 100% under setting [4]; 95 to 100% under setting [5]; 0 to 29% under setting [6]. Also, the pest or weed control at 140 g/ha fell in the range of 95 to 100% under setting [7]; 0 to 29% under setting [8]; 95 to 100% under setting [9]; 60 to 74% under setting [10]; 0 to 29% under setting [11]; 45 to 59% under setting [12]. Also, the pest or weed control at 140 g/ha is, setting by setting: under setting [13], 95 to 100%; under setting [14], 0 to 29%; under setting [15], 45 to 59%.
